Laboratory results: patent US11773132B2, “Cyclic di-nucleotides as stimulator of interferon genes modulators” (Beijing Xuanyi PharmaSciences Co., Ltd., priority 2017, dated 2023)

Tests used:
Format in all cases: cell-based
Human STING [1] = molecular target: T1, Human STING (Homo sapiens, UniProt Q86WV6, G230A/H232R/R293Q/R71H); experiment: EC50 in THP1-Dual cells, IRF3 reporter (QUANTI-Luc); conditions: THP1 cell line, 24 h
T1 construct: host or cells: THP1-Dual cells (human monocytic reporter line)
T1 sequence (Q86WV6 whole entry R71H/G230A/H232R/R293Q): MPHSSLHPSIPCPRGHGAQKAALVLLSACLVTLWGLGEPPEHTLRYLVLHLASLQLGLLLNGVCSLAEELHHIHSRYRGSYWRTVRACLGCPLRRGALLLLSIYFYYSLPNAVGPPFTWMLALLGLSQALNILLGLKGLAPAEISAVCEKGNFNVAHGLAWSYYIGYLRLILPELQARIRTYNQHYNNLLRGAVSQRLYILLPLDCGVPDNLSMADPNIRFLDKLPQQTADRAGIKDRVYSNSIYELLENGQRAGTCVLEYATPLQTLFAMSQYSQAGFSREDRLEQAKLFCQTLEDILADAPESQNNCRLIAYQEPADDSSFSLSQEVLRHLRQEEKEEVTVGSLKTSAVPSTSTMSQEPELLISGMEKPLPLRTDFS
Experimental: (§1) THP1-Dual cells (obtained from Invivogen) are maintained in RPM11640 medium with 100 µg/ml of Zeocin and 10 µg/ml of blasticidin at 37° C., 5% CO2, compounds were dissolved in sterile PBS (pH7.4) as 20 mM, 0.5×10^6 cells/ml of THP-1 Dual cells were incubated with indicated concentrations of a compound for 24 hours at 37° C., 5% CO2 incubator. QUANTI-Luc and QUANTI-Blue were prepared and used following the manufacturer's instructions. 10 ul of cell culture supernatant were mixed with QUANTI-Luc and immediately measured using Luminometer; 20 ul of supernatant were mixed with QUANTI-Blue, and incubated at 37° C. for 30 minutes, and read at OD620. EC50 was calculated using Prism with 4-parameter dose-response curve fitting (Table 3).

Human STING [2] = molecular target: T1, Human STING; experiment: EC50 in THP1-Dual cells, NF-kB reporter (QUANTI-Blue); conditions: THP1 cell line, 24 h, OD620, read-out: ECs50 NF-kB
Experimental: as §1

hSTING R232 [3] = molecular target: T2, hSTING R232 (Homo sapiens, UniProt Q86WV6, H232R); experiment: 293T-Dual hSTING R232 cells, IRF activation (Quanti-Blue); conditions: 293T-Dual hSTING R232 cell line, 24 h, OD 620 nm
T2 construct: host or cells: 293T-Dual hSTING R232 cells
T2 sequence (Q86WV6 whole entry H232R): as the sequence (Q86WV6 whole entry R71H/G230A/H232R/R293Q) above, with H71R, A230G, Q293R counted along it
Experimental: (§2) A test compound with a serial of dilution was prepared in complete medium, and 50 μL of the compound were added to the corresponding well, and incubated with the cells at 37° C. incubator for 24 hr.
To determine the effect on interferon regulatory factor (IRF) activation, 20 μL of cell culture supernatant was transferred into a fresh 96-well plate, 150 μL of Quanti-Blue was added to each well and incubated at 37° C. for 25 min. OD at 620 nm was recorded, and EC50 was calculated with 4 parameter logistic equation.

hSTING R232 [4] = molecular target: T2, hSTING R232; experiment: 293T-Dual hSTING R232 cells, interferon-β expression (Quanti-Luc); conditions: 293T-Dual hSTING R232 cell line, 24 h, read-out: IFNb EC50
Experimental: as §2
To evaluate the effect on interferon-β expression, 20 μL of cell culture supernatant were transferred into a fresh 96-half area-well white plate, 30 μL of Quanti-Luc were added to each well, and luminescence was measured immediately with a luminometer. Four parameter logistic equation was used to calculate EC50 (Table 4).

Human STING [5] = molecular target: T1, Human STING; experiment: THP1-Dual cell assay, IRF pathway reporter luminescence readout (QUANTI-Luc); conditions: THP1-Dual cells, 24 h, 30 μM, Table 2
Experimental: STING pathway activation by the compounds described herein was measured using THP-1 dual cells. These cells are THP1 monocytes that have been modified to be reporters for the IRF pathway, which is activated by STING agonists in these cells.
THP1-Dual cells (obtained from Invivogen) are maintained in growth medium with 100 ug/ml of Zeocin and 10 ug/ml of blasticidin at 37° C., 5% CO2, the cells were passaged every 3 days by inoculating 7×10^5 cells per ml and centrifuged at 1000 rpm for 5 min. Supernatant was removed and THP-1 Dual cells were re-suspended at 5×10^5 cells/ml in fresh pre-warmed growth medium.
[…]. 50 ul of Cell suspension (about 2.5×10^4 cells per well) was added in 384-well plate, which was incubated for 24 hours at 37° C., 5% CO2. QUANTI-Luc was prepared and used following the manufacturer's instructions, 5×10^3 cells per well were seeded in 40 μl medium and incubated overnight. Luminometer was set with the following parameters: 50u of injection, end-point measurement with a 4 second start time and 0.1 second reading time. 10 ul of THP-1 Dual cell culture medium per well was added into a 96-well white (opaque) plate, luminescence was measured and calculated.

Structure (SMILES)	EC50 (Human STING [1]) [µM]	EC50 (Human STING [2]) [µM]	EC50 (hSTING R232 [3]) [µM]	EC50 (hSTING R232 [4]) [µM]	Readout Average (Human STING [5])	Readout n = 1 (Human STING [5])	Readout n = 2 (Human STING [5])
BP1(=O)OC[C@H]2O[C@@H](n3cnc4c(=O)[nH]c(N)nc43)[C@H](F)[C@@H]2OP(=O)(S)OCC2O[C@@H](n3cnc4c(N)ncnc43)[C@H](F)[C@@H]2O1 (single isomer, unassigned) [Compound B1]	28.2	> 100	11.8	37.5	–	–	–
BP1(=O)OC[C@H]2O[C@@H](n3cnc4c(=O)[nH]c(N)nc43)[C@H](F)[C@@H]2OP(=O)(S)OCC2O[C@@H](n3cnc4c(N)ncnc43)[C@H](F)[C@@H]2O1 (single isomer, unassigned) [Compound B2]	14.7	74.6	9.82	29.1	–	–	–
BP1(=O)OC[C@H]2O[C@@H](n3cnc4c(=O)[nH]c(N)nc43)[C@H](F)[C@@H]2OP(=O)(S)OCC2O[C@@H](n3cnc4c(N)ncnc43)[C@H](F)[C@@H]2O1 (single isomer, unassigned) [Compound B3]	0.91	5.22	0.32	2.97	–	–	–
BP1(=O)OC[C@H]2O[C@@H](n3cnc4c(=O)[nH]c(N)nc43)[C@H](F)[C@@H]2OP(=O)(S)OCC2O[C@@H](n3cnc4c(N)ncnc43)[C@H](F)[C@@H]2O1 (single isomer, unassigned) [Compound B4]	0.61	7.61	0.34	2.27	–	–	–
BP1(=O)OCC2O[C@@H](n3cnc4c(N)ncnc43)[C@H](F)[C@@H]2OP(=O)(S)OC[C@H]2O[C@@H](n3cnc4c(=O)[nH]c(N)nc43)[C@H](F)[C@@H]2O1 (single isomer, unassigned) [Compound C1]	88.4	67.1	34.3	75	–	–	–
BP1(=O)OCC2O[C@@H](n3cnc4c(N)ncnc43)[C@H](F)[C@@H]2OP(=O)(S)OC[C@H]2O[C@@H](n3cnc4c(=O)[nH]c(N)nc43)[C@H](F)[C@@H]2O1 (single isomer, unassigned) [Compound C2]	0.43	4.93	0.23	0.43	–	–	–
BP1(=O)OCC2O[C@@H](n3cnc4c(N)ncnc43)[C@H](F)[C@@H]2OP(=O)(S)OC[C@H]2O[C@@H](n3cnc4c(=O)[nH]c(N)nc43)[C@H](F)[C@@H]2O1 (single isomer, unassigned) [Compound C3]	0.37	4.56	0.085	0.16	–	–	–
BP1(=O)OCC2O[C@@H](n3cnc4c(N)ncnc43)[C@H](F)[C@@H]2OP(=O)(S)OC[C@H]2O[C@@H](n3cnc4c(=O)[nH]c(N)nc43)[C@H](F)[C@@H]2O1 (single isomer, unassigned) [Compound C4]	0.63	6.29	0.34	0.7	–	–	–
BP1(=O)OC[C@H]2O[C@@H](n3cnc4c(NCc5ccccc5)ncnc43)[C@H](OP(=O)(S)OC[C@H]3O[C@@H](n4cnc5c(NCc6ccccc6)ncnc54)[C@H](O)[C@@H]3O1)[C@@H]2O (single isomer, unassigned) [Compound D1]	–	–	–	–	22040	22420	21660
BP1(=O)OC[C@H]2O[C@@H](n3cnc4c(NCc5ccccc5)ncnc43)[C@H](OP(=O)(S)OC[C@H]3O[C@@H](n4cnc5c(NCc6ccccc6)ncnc54)[C@H](O)[C@@H]3O1)[C@@H]2O (single isomer, unassigned) [Compound D2]	–	–	–	–	23960	18350	29570
[BH3-][P+]1(O)OCC2OC(n3cnc4c(N)ncnc43)C(OP(=O)(O)OCC3OC(n4cnc5c(N)ncnc54)C(F)C3O1)C2F (single isomer, unassigned) [Compound K1]	0.91	7.47	0.72	2.3	–	–	–
[BH3-][P+]1(O)OCC2OC(n3cnc4c(N)ncnc43)C(OP(=O)(O)OCC3OC(n4cnc5c(N)ncnc54)C(F)C3O1)C2F (single isomer, unassigned) [Compound K2]	23	72.6	15	33	–	–	–
BP1(=O)OCC2O[C@@H](n3cnc4c(N)ncnc43)[C@H](F)[C@@H]2OP(=O)(O)OC[C@H]2O[C@@H](n3cnc4c(=O)[nH]c(N)nc43)[C@H](F)[C@@H]2O1 (stereo partly drawn) [Compound F1, ((2R,3R,3aR,5R,7aS,9R,10R,10aR,14aR)-2-(2-amino-6-oxo-1,6-dihydro-9H-purin-9-yl)-9-(6-amino-9H-purin-9-yl)-3,10-difluoro-12-hydroxy-5,12-dioxidooctahydro-2H,7H-difuro[3,2-d:3′,2′-j][1,3,7,9]tetraoxa[2,8]diphosphacyclododecin-5-yl)trihydroborate]	1.16	6.59	0.63	2.44	–	–	–
BP1(=O)OCC2O[C@@H](n3cnc4c(N)ncnc43)[C@H](F)[C@@H]2OP(=O)(O)OC[C@H]2O[C@@H](n3cnc4c(=O)[nH]c(N)nc43)[C@H](F)[C@@H]2O1 (stereo partly drawn) [Compound F2, ((2R,3R,3aR,5R,7aS,9R,10R,10aR,14aR)-2-(2-amino-6-oxo-1,6-dihydro-9H-purin-9-yl)-9-(6-amino-9H-purin-9-yl)-3,10-difluoro-12-hydroxy-5,12-dioxidooctahydro-2H,7H-difuro[3,2-d:3′,2′-j][1,3,7,9]tetraoxa[2,8]diphosphacyclododecin-5-yl)trihydroborate]	1.56	10	1.2	2.78	–	–	–
BP1(=O)OC[C@H]2O[C@@H](n3cnc4c(=O)[nH]c(N)nc43)[C@H](F)[C@@H]2OP(=O)(O)OCC2O[C@@H](n3cnc4c(N)ncnc43)[C@H](F)[C@@H]2O1 (stereo partly drawn) [Compound G1, ((2R,3R,3aR,5R,7aR,9R,10R,10aR,14aS)-9-(2-amino-6-oxo-1,6-dihydro-9H-purin-9-yl)-2-(6-amino-9H-purin-9-yl)-3,10-difluoro-12-hydroxy-5,12-dioxidooctahydro-2H,7H-difuro[3,2-d:3′,2′-j][1,3,7,9]tetraoxa[2,8]diphosphacyclododecin-5-yl)trihydroborate]	0.63	4.3	0.41	0.92	–	–	–
BP1(=O)OC[C@H]2O[C@@H](n3cnc4c(=O)[nH]c(N)nc43)[C@H](F)[C@@H]2OP(=O)(O)OCC2O[C@@H](n3cnc4c(N)ncnc43)[C@H](F)[C@@H]2O1 (stereo partly drawn) [Compound G2, ((2R,3R,3aR,5R,7aR,9R,10R,10aR,14aS)-9-(2-amino-6-oxo-1,6-dihydro-9H-purin-9-yl)-2-(6-amino-9H-purin-9-yl)-3,10-difluoro-12-hydroxy-5,12-dioxidooctahydro-2H,7H-difuro[3,2-d:3′,2′-j][1,3,7,9]tetraoxa[2,8]diphosphacyclododecin-5-yl)trihydroborate]	1.08	8.52	0.94	1.77	–	–	–
B[P@]1(=O)OC[C@H]2O[C@@H](n3cnc4c(N)ncnc43)[C@H](F)[C@@H]2OP(=O)(O)OC[C@H]2O[C@@H](n3cnc4c(N)ncnc43)[C@H](O1)C2F (some centres unmarked) [Compound I1]	13.9	29	9.68	12.8	–	–	–
B[P@]1(=O)OC[C@H]2O[C@@H](n3cnc4c(N)ncnc43)[C@H](F)[C@@H]2OP(=O)(O)OC[C@H]2O[C@@H](n3cnc4c(N)ncnc43)[C@H](O1)C2F (some centres unmarked) [Compound I2]	6.27	34.7	5.43	11.2	–	–	–
BP1(=O)OC[C@H]2O[C@@H](n3cnc4c(N)ncnc43)[C@H](F)[C@@H]2OP(=O)(S)OC[C@H]2O[C@@H](n3cnc4c(N)ncnc43)[C@H](O1)C2F (some centres unmarked) [Mixtures of H1, H2, H3, and H4]	> 100	> 100	33.6	84.4	–	–	–
